Where two headings read alike, the source gives them in different places.
Columns and labels:
[1] = biological target: T1, bradykinin 1 receptor (B1R) of the rat (Rattus norvegicus, UniProt P97583); assay: Functional investigation on the rat bradykinin 1 receptor (B1R), Ca2+ FLIPR assay in CHO K1 rB1R cells; type: cell-based; conditions: CHO-K1, B1R antagonism rat; test substance 10 μM; Ca2+ FLIPR, CHO K1 rB1R cells; read-out: B1R Ant. r [10 μM] % Inhibition
T1 construct: expressed in transfected cells; host or cells: CHO K1 cells
T1 sequence (P97583 1-337): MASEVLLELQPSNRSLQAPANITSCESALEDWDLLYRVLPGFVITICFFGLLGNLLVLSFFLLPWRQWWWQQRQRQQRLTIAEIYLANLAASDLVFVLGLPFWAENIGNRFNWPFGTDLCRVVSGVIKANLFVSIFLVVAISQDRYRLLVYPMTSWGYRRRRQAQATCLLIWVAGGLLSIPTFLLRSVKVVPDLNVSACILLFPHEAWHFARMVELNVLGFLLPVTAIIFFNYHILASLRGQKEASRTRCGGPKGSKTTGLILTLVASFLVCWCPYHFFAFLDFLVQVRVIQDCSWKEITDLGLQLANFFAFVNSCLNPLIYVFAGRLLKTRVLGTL
Excerpt: (§1) Functional Investigation on the Human Bradykinin 1 Receptor (B1R)
(§2) The agonistic or antagonistic action of substances can be determined on the bradykinin 1 receptor (B1R) of the human species and rats with the following assay. In accordance with this assay, the Ca^2+ inflow through the channel is quantified with the aid of a Ca^2=-sensitive dyestuff (type Fluo-4, Molecular Probes Europe BV, Leiden, Holland) in a fluorescent imaging plate reader (FLIPR, Molecular Devices, Sunnyvale, USA).
(§3) Chinese hamster ovary cells (CHO K1 cells) transfected stably with the human B1R gene (hB1R cells) or the B1R gene of the rat (rB1R cells) are used. For functional studies, these cells are plated out on black 96-well plates with a clear base (BD Biosciences, Heidelberg, Germany or Greiner, Frickenhausen, Germany) in a density of 20,000-35,000 cells/well. The cells are left overnight at 37° C. and 5% CO2 in culture medium (hB1R cells: Nutrient Mixture Ham's F12, Gibco Invitrogen GmbH, Karlsruhe, Germany or DMEM, Sigma-Aldrich, Taufkirchen, Germany; rB1R cells: D-MEM/F12, Gibco Invitrogen GmbH, Karlsruhe, Germany) with 10 vol. % of FBS (foetal bovine serum, Gibco Invitrogen GmbH, Karlsruhe, Germany or PAN Biotech GmbH, Aidenbach, Germany).
(§4) On the following day, the cells are loaded for 60 min at 37° C. with 2.13 μM Fluo-4 (Molecular Probes Europe BV, Leiden, The Netherlands) in HBSS buffer (Hank's buffered saline solution, Gibco Invitrogen GmbH, Karlsruhe, Germany) with 2.5 mM probenecid (Sigma-Aldrich, Taufkirchen, Germany) and 10 mM HEPES (Sigma-Aldrich, Taufkirchen, Germany). The plates are then washed 2× with HBSS buffer, and HBSS buffer which additionally contains 0.1% of BSA (bovine serum albumin; Sigma-Aldrich, Taufkirchen, Germany), 5.6 mM glucose and 0.05% of gelatine (Merck KGaA, Darmstadt, Germany) is added. After a further incubation of 20 minutes at room temperature, the plates are inserted into the FLIPR for the Ca^2+ measurement.
(§5) Alternatively, the plates are washed with buffer A (15 mM HEPES, 80 mM NaCl, 5 mM KCl, 1.2 mM CaCl2, 0.7 mM MgSO4, 2 g/l glucose, 2.5 mM probenecid), buffer A is added and the plates are loaded with 2.5 μM Fluo-4 and 0.025% of Pluronic F127 (Sigma-Aldrich, Taufkirchen, Germany). Thereafter, the cells are washed 2× with buffer A and incubated for 30 minutes with buffer A, which additionally contains 0.05% of BSA and 0.05% of gelatine, at room temperature and thereafter inserted into the FLIPR for the Ca^2+ measurement.
(§6) The Ca^2+-dependent fluorescence is measured before and after addition of substances (λex=488 nm, λem=540 nm). Quantification is by measurement of the highest fluorescence intensity (FC, fluorescence counts) over time.
(§7) The FLIPR protocol consists of 2 additions of substance. Test substances (10 μM) are first pipetted on to the cells and the Ca^2+ inflow is compared with the control (hB1R: Lys-Des-Arg^9-bradykinin >=50 nM; rB1R: Des-Arg^9-bradykinin 10 μM). This gives the information in % activation based on the Ca^2+ signal after addition of Lys-Des-Arg^9-bradykinin (>=50 nM) or Des-Arg^9-bradykinin (10 μM).
(§8) After incubation for 10-20 minutes, Lys-Des-Arg^9-bradykinin (hB1R) or Des-Arg^9-bradykinin (rB1R) is applied in the concentration of the EC80 and the inflow of Ca^2+ is likewise determined.
(§9) Antagonists lead to a suppression of the Ca^2+ inflow. % inhibition compared with the maximum achievable inhibition is calculated.
(§10) To determine the IC50 value, the substances are added in various concentrations. Duplicate or triplicate determinations (n=2 or n=3) are carried out, and these are repeated in at least one further independent experiment (N>=2).
(§11) Preferably, the compounds have a B1R antagonistic action on the human receptor and/or on the rat receptor. The following data are given by way of example in the following table: (In this, “B1R Ant. h” represents “B1R antagonism human” and “B1R Ant. r” represents “B1R antagonism rat”)

[2] = biological target: T2, human bradykinin 1 receptor (B1R) (Homo sapiens, UniProt P46663); assay: Functional investigation on the human bradykinin 1 receptor (B1R), Ca2+ FLIPR assay in CHO K1 hB1R cells; type: cell-based; conditions: test substance 10 μM; for inhibition at 10 µM: CHO-K1, B1R antagonism human, read-out: B1R Ant. h [10 μM] % Inhibition; for B1R Ant. h [10 μM] % Inhibition: B1R antagonism human
T2 construct: expressed in transfected cells; host or cells: CHO K1 cells
T2 sequence (P46663 1-353): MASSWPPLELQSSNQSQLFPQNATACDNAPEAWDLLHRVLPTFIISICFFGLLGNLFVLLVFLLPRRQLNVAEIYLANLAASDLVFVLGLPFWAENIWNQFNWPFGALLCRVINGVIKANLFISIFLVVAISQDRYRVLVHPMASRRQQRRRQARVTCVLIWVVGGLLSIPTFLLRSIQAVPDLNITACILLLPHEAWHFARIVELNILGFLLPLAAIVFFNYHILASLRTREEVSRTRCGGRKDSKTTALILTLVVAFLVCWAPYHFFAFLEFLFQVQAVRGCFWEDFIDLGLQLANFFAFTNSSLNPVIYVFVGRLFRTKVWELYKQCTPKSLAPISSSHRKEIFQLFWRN
Excerpt: as §1, §2, §3, §4, §5, §6, §7, §8, §9, §10, §11

human μ opiate receptor = biological target: T3, human μ opiate receptor (Homo sapiens, UniProt P35372); assay: Affinity for the human μ opiate receptor ([3H]-naloxone displacement, CHO-K1 receptor membrane preparation, SPA); type: binding; conditions: test concentration of 1 μM
T3 construct: purchased PerkinElmer Life Sciences, Zaventem, Belgium RB-HOM; host or cells: CHO-K1 cells (membrane preparation)
Experimental: Binding data of the compounds on the μ opioid receptor and data on the inhibition of reuptake of serotonin (5-HT) are given in Table 1. The data for the μ receptor were measured at a test concentration of 1 μM, and those for the serotonin reuptake at 10 μM. The values are stated in % inhibition.
Investigation of the Activity of the Compounds of the Invention Method for Determining the Affinity for the Human μ Opiate Receptor
The receptor affinity for the human p opiate receptor is determined in a homogeneous set-up in microtitre plates. For this, dilution series of the substances to be tested are incubated with a receptor membrane preparation (15-40 μg of protein/250 μl of incubation batch) of CHO-K1 cells which express the human p opiate receptor (RB-HOM receptor membrane preparation from PerkinElmer Life Sciences, Zaventem, Belgium) in the presence of 1 nmol/l of the radioactive ligand [^3H]-naloxone (NET719, PerkinElmer Life Sciences, Zaventem, Belgium) and 1 mg of WGA-SPA-Beads (wheat germ agglutinin SPA beads from Amersham/Pharmacia, Freiburg, Germany) in a total volume of 250 μl for 90 minutes at room temperature. 50 mmol/l of Tris-HCl supplemented with 0.06% of bovine serum albumin is used as the incubation buffer. 100 μmol/l of naloxone are additionally added for determination of the non-specific binding. After the end of the ninety-minute incubation time, the microtitre plates are centrifuged for 20 minutes at 1,000 g and the radioactivity is measured in a β-counter (Microbeta-Trilux, PerkinElmer Wallac, Freiburg, Germany). The percentage displacement of the radioactive ligand from its binding to the human p opiate receptor is determined at a concentration of the test substances of 1 μmol/l and stated as the percentage inhibition of the specific binding. Starting from the percentage displacement by various concentrations of the test substances, IC50 inhibitory concentrations which cause a 50 percent displacement of the radioactive ligand are calculated. By conversion by means of the Cheng-Prusoff relationship, Ki values for the test substances are obtained.

T3 sequence (P35372 whole entry): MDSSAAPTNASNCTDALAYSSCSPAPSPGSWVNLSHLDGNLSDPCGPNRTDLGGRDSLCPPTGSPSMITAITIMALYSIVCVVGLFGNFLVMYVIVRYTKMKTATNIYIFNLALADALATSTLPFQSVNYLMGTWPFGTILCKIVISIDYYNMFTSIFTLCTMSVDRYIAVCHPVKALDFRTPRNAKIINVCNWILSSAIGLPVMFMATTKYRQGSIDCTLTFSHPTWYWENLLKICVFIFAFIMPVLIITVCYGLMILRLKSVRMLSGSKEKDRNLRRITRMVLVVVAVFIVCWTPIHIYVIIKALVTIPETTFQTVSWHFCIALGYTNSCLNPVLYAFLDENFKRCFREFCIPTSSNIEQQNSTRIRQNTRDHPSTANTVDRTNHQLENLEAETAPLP

| Structure (SMILES) | μ (binding on the μ opioid receptor, % inhibition) (human μ opiate receptor) | B1R Ant. h [10 μM] % Inhibition ([2]; Ca2+ FLIPR, CHO K1 hB1R cells) | further results |
| --- | --- | --- | --- |
| CN(C)C(c1cccc(F)c1)C1CCC(CNC(=O)CNC(=O)c2nc(-c3ccc(C(F)(F)F)cc3)no2)CC1 (centres unmarked) [Example 778, 3-(4-trifluoromethyl-phenyl)-[1,2,4]oxadiazole-5-carboxylic acid [({4-[dimethylamino-(3-fluoro-phenyl)-methyl]-cyclohexylmethyl}-carbamoyl)-methyl]-amide] | – | – | inhibition at 10 µM [1]: 12%; inhibition at 10 µM ([2]; Ca2+ FLIPR, CHO K1 hB1R cells): -1% |
| Cc1ccc(F)cc1-c1noc(C(=O)NCC(=O)NC2CCC(C(CCc3ccccc3)N(C)C)CC2)n1 (centres unmarked) [Example 796, 3-(5-fluoro-2-methyl-phenyl)-[1,2,4]oxadiazole-5-carboxylic acid {[4-(1-dimethylamino-3-phenyl-propyl)-cyclohexylcarbamoyl]-methyl}-amide] | – | – | inhibition at 10 µM ([2]; Ca2+ FLIPR, CHO K1 hB1R cells): 94% |
| CC(Oc1ccccc1)C(=O)NC1CCC(C(c2ccc(F)cc2)N(C)C)CC1 (centres unmarked) [Example 516] | 40% | – | – |
| CN(C)C(c1ccccc1)C1CCC(NC(=O)COC2CCN(S(=O)(=O)c3ccc(F)cc3)C2)CC1 (centres unmarked) [Example 591] | 93% | 0% | – |
| CN(C)C(c1ccccc1)C1CCC(NC(=O)COCCN(C)S(=O)(=O)c2cccc(C(F)(F)F)c2)CC1 (centres unmarked) [Example 593] | 91% | 56% | – |
| CN(C)C(c1ccccc1)C1CCC(NC(=O)COC2CCN(S(=O)(=O)c3ccc(Cl)cc3Cl)C2)CC1 (centres unmarked) [Example 596] | 84% | 32% | – |
| CN(C)C(c1ccccc1)C1CCC(NC(=O)COC2CCN(S(=O)(=O)c3ccccc3)C2)CC1 (centres unmarked) [Example 595] | 51% | 15% | – |
| CN(C)C(CCc1ccccc1)C1CCC(NC(=O)CCNC(=O)c2nc(-c3cccs3)no2)CC1 (centres unmarked) [Example 797, 3-thiophen-2-yl-[1,2,4]oxadiazole-5-carboxylic acid {2-[4-(1-dimethylamino-3-phenyl-propyl)-cyclohexylcarbamoyl]-ethyl}-amide] | – | – | inhibition at 10 µM ([2]; % inhibition compared with the maximum achievable inhibition): 0% |
| COc1ccc(S(=O)(=O)N(C)CCOCC(=O)NC2CCC(C(c3ccccc3)N(C)C)CC2)cc1OC (centres unmarked) [Example 592] | 83% | 1% | – |
| CN(C)C(c1ccccc1)C1CCC(NC(=O)COCCN(C)S(=O)(=O)c2ccccc2)CC1 (centres unmarked) [Example 588] | 29% | 6% | – |
| CN(C)C(CCc1ccccc1)C1CCC(NC(=O)CNC(=O)c2nc(-c3ccc(Cl)cc3Cl)no2)CC1 (centres unmarked) [Example 795, 3-(2,4-dichloro-phenyl)-[1,2,4]oxadiazole-5-carboxylic acid {[4-(1-dimethylamino-3-phenyl-propyl)-cyclohexylcarbamoyl]-methyl}-amide] | – | – | inhibition at 10 µM ([2]; Ca2+ FLIPR, CHO K1 hB1R cells): 103% |
| COc1ccc(-c2noc(C(=O)NCC(=O)NC3CCC(C(CCc4ccccc4)N(C)C)CC3)n2)cc1OC (centres unmarked) [Example 794, 3-(3,4-dimethoxy-phenyl)-[1,2,4]oxadiazole-5-carboxylic acid {[4-(1-dimethylamino-3-phenyl-propyl)-cyclohexylcarbamoyl]-methyl}-amide] | – | – | inhibition at 10 µM ([2]; Ca2+ FLIPR, CHO K1 hB1R cells): 1% |
| COc1ccc(S(=O)(=O)N(C)CCOCC(=O)NC2CCC(C(c3ccccc3)N(C)C)CC2)cc1 (centres unmarked) [Example 590] | 75% | −1% | – |
| CN(C)C(c1ccccc1)C1CCC(NC(=O)COCCN(C)S(=O)(=O)c2ccc(F)cc2)CC1 (centres unmarked) [Example 585] | 41% | −10% | – |
| CN(C)C(c1ccccc1)C1CCC(NC(=O)COCCN(C)S(=O)(=O)c2ccc(Cl)cc2)CC1 (centres unmarked) [Example 589] | 25% | 28% | – |
| Cc1ccc(S(=O)(=O)N2CCC(OCC(=O)NC3CCC(C(c4ccccc4)N(C)C)CC3)C2)cc1 (centres unmarked) [Example 123, N-(4-((dimethylamino)(phenyl)methyl)cyclohexyl)-2-(1-tosylpyrrolidin-3-yloxy)acetamide] | – | – | inhibition at 1 µM (human μ opiate receptor; read-out: μ (binding on the μ opioid receptor, % inhibition)): 27%; inhibition at 10 µM ([2]; Ca2+ FLIPR, CHO K1 hB1R cells): -6% |
| CN(C)C(c1ccccc1)C1CCC(NC(=O)COCCN(C)S(=O)(=O)c2ccc(OC(F)(F)F)cc2)CC1 (centres unmarked) [Example 594] | 94% | 20% | – |

— patent US8106055B2, “Substituted amide compounds” (Gruenenthal GmbH, priority 2007, dated 2012)
